Broadly, the ΔTm is the shift of the melting midpoint relative to a reference. The term Kd denotes the equilibrium constant for the complex coming apart. The low end stands for higher affinity, the high end for lower affinity.

Here are results for six molecules from ChEMBL document CHEMBL4311958, “Targeting multiple G-quadruplex-forming DNA sequences: Design, biophysical and biological evaluations of indolo-naphthyridine scaffold derivatives” (Eur J Med Chem, 2019).

Test [1] deals with dsDNA. The experiment in a line: Stabilization of 5'-DABCYL labeled double stranded DNA (unknown origin) assessed as change in melting temperature at 5 uM preincubated for 5 mins and measured after 5 mins by FRET assay. Format: nucleic-acid assay.
For test [2], the system named is Quadruplex DNA. The test is described as follows: Stabilization of 5'-DABCYL/3'-FAM labeled KRAS G-quadruplex oligonucleotide (unknown origin) assessed as change in melting temperature at 5 uM preincubated for 5 mins and measured after 5 mins by FRET assay. Format: nucleic-acid assay.
The test system of test [3] is Quadruplex DNA. The experiment in a line: Stabilization of 5'-DABCYL/3'-FAM labeled cMYC G-quadruplex oligonucleotide (unknown origin) assessed as change in melting temperature at 5 uM preincubated for 5 mins and measured after 5 mins by FRET assay. Type of test: nucleic-acid assay.
Test [4] has as its system Quadruplex DNA. The experiment in a line: Stabilization of 5'-DABCYL/3'-FAM labeled BCL2 G-quadruplex oligonucleotide (unknown origin) assessed as change in melting temperature at 5 uM preincubated for 5 mins and measured after 5 mins by FRET assay. Format: nucleic-acid assay.
The subject of test [5] is Quadruplex DNA. The experiment in a line: Stabilization of 5'-DABCYL/3'-FAM labeled HTS G-quadruplex oligonucleotide (unknown origin) assessed as change in melting temperature at 5 uM preincubated for 5 mins and measured after 5 mins by FRET assay. Type of test: nucleic-acid assay.
Test [6] concerns Quadruplex DNA. The test is described as follows: Stabilization of 5'-DABCYL/3'-FAM labeled cKIT1 G-quadruplex oligonucleotide (unknown origin) assessed as change in melting temperature at 5 uM preincubated for 5 mins and measured after 5 mins by FRET assay. Type of test: nucleic-acid assay.
In test [7] the test system is Quadruplex DNA. The experiment in a line: Binding affinity to 5'-DABCYL/3'-FAM labeled cKIT1 G-quadruplex oligonucleotide (unknown origin) assessed as conformational change at test compound to DNA ratio of 4:1 measured for 10 mins by circular dichroism analysis. Type of test: nucleic-acid assay. A general note: Circular dichroism is the unequal absorption of left and right circularly polarised light.

The test system of test [8] is Quadruplex DNA. The test is described as follows: Binding affinity to 5'-DABCYL/3'-FAM labeled cKIT1 G-quadruplex oligonucleotide (unknown origin) assessed as melting temperature at test compound to DNA ratio of 4:1 measured for 10 mins by circular dichroism analysis. Format: nucleic-acid assay.
For test [9], the target named is Quadruplex DNA. The test is described as follows: Binding affinity to 5'-biotin-TEG labeled cKIT1 G-quadruplex oligonucleotide (unknown origin) by SPR analysis. Type of test: nucleic-acid assay. Background: In SPR one partner is held on a chip, and binding of the other changes the refractive index at the surface.
Test [10] concerns the target Quadruplex DNA. The experiment in a line: Binding affinity to 5'-cy5 labeled cKIT1 G-quadruplex oligonucleotide (unknown origin) by microscale thermophoresis analysis. Type of test: nucleic-acid assay. (In general: MST reads how a fluorescent partner responds to local heating, with and without ligand.)
The subject of test [11] is HT-29. The experiment in a line: Cytotoxicity against human HT-29 cells assessed as cell viability at 20 uM incubated for 48 hrs by trypan blue assay relative to control. Format: functional. Particulars: HT-29, 48 h, read-out: Activity.
Test [12] deals with A2780. The test is described as follows: Cytotoxicity against human A2780 cells assessed as cell viability at 20 uM incubated for 48 hrs by trypan blue assay relative to control. Particulars: A2780, 48 h, read-out: Activity. Type of test: functional.
The subject of test [13] is A549. The test is described as follows: Cytotoxicity against human A549 cells assessed as cell viability at 20 uM incubated for 48 hrs by trypan blue assay relative to control. Type of test: functional. Particulars: A549, 48 h, read-out: Activity.
Test [14] concerns Quadruplex DNA. The experiment in a line: Competitive binding affinity to 5'-DABCYL/3'-FAM labeled cKIT1 G-quadruplex oligonucleotide (unknown origin) at 5 uM preincubated for 5 mins and measured after 5 mins in presence of ds DNA by FRET assay. Type of test: nucleic-acid assay.

Activity calls are given as the source filed them. The rule behind the calls is not given here.

With `CCN1CCN(C(=O)c2cc3c4ccccc4n4c(=O)c5ccccc5c(n2)c34)CC1`, the thermal shift (ΔTm) came out at 0.6 °C in test [1], 1.2 °C in test [3], 2.3 °C in [4] and 1.5 °C in [5]. Moreover, the deltaTm entry in [2] and in [6] was “inactive” each time.

Turning to `COc1ccc2c(c1OC)c(=O)n1c3ccc(OCC(=O)NCCCN4CCOCC4)cc3c3ccnc2c31`, the thermal shift (ΔTm) in [1] turned out to be 0.1 °C; in [2], 0.8 °C; in [3], 4.9 °C; in test [4], 3.4 °C; in test [5], 4.5 °C; in test [6] it was 6.3 °C. For the same molecule, the result in [7] was Active. The Tm in [8] came to 59.9 °C. For the same molecule, the Kd in test [9] is 510 nM; in [10], 300 nM. For the same molecule, the viability at 20 µM in test [11] came out at 85%; in test [12], 94%; in [13], 69%. Further, the outcome in [14] was inactive.

Consider `CN(C)Cc1c(O)ccc2c1c1ccnc3c4ccccc4c(=O)n2c13`, for which the ΔTm stood at 0.1 °C in [1]; 3.8 °C in test [3]; 1.1 °C in [4]; 3.3 °C in test [5]; 5 °C in [6]. Moreover, the deltaTm result in test [2] is “inactive”.

Take `C=C(C)Cc1c(OCC(=O)NCC2CCCN2CC)ccc2c1c1ccnc3c4ccccc4c(=O)n2c13` (centres undefined): the deltaTm entry in test [1] and in test [2] was “inactive” throughout. Further, the ΔTm in [3] came to 3.4 °C; in test [4] it was 0 °C; in test [5], 1.7 °C; in test [6], 1.6 °C.

`COc1ccc2c(c1OC)c(=O)n1c3ccccc3c3cc(C(=O)N4CCN(Cc5ccccc5)CC4)nc2c31`: the deltaTm result in test [1], in test [2], in test [3], in test [4] and in test [6] was “inactive” throughout. In addition, the ΔTm in [5] worked out at 0.5 °C.

Turning to `COc1ccc2c(c1OC)c(=O)n1c3ccccc3c3cc(C(=O)N4CCN(CCO)CC4)nc2c31`, the deltaTm result in test [1], in test [2] and in [6] was “inactive” each time. Further, the values for the ΔTm in [3], in test [4] and in test [5] were 0.8 °C, 2.3 °C and 0.6 °C, respectively.
